From patent US4921849A, “Injection containing 3-benzoyloxy-1,3,5(10)-estratriene-17-[4-{p-(bis(2-chloroethyl)amino)phe nyl}butanoyloxy)acetate as an active ingredient” (priority 1987, dated 1990)

Assays:
[1] = system: Walker 256 carcino sarcoma; assay: Life span of rats bearing Walker 256 carcino sarcoma after injection from the femoral artery; assay type: in vivo, female Wistar rats; details: for elongated life time (T/C=test/control): control = physiological saline; for mean survival days (MST): right femoral artery, 8th or 9th day after transplantation
Procedure: A predetermined amount (shown in Table 1) of 3-benzoyloxy-1,3,5(10)-estratriene-17β-[4-{p-(bis(2-chloroethyl)amino)phenyl}butanoyloxy]acetate or adriamycin was added to 6.5 g of LIPIODOL® and the mixture was stirred for 15 minutes at 25° C. to obtain a solution as the injection of each active ingredient. Each solution was put into a sterilized vials.
A walker 256 carcino sarcoma (solid) of about 3 mm square in size was transplanted subcutaneously to the left brachial part and the left femoral part of each of female Wistar rats (the age of 6 weeks and one group consisting of 5 animals) of respective group.
On the 8th or 9th day after the transplantation, each of the injections prepared in Example 1 was injected into each rat of respective testing group from the right femoral artery by a catheter and physiological saline solution or 6.5 g of LIPIODOL® was injected into each rat of the control group or the LIPIODOL group in the same manner as above.
After having observed the state of the test animals, the mean survival days (MST) and the elongated life time (T/C=test/control) were calculated.

estradiol receptor = details: cited from earlier work
cells = details: cited from earlier work
Acute toxicity in rats = assay type: in vivo
Procedure: Concerning an acute toxicity (LD50) of the present derivative, even when rats were administered orally with the maximum administrable amount (6,000 mg/kg), no death case has been observed and when rats were injected intraperitoneally in a form of sesame oil solution, its LD50 has been over 3,000 mg/kg. Accordingly, the present derivative is a medicine extremely high in safety. In a mean while, LD50 of LIPIODOL® has been 7,000 mg/kg when it was administered intravenously to rabbits.

Solubility in oils = assay type: physicochemical
[2] = cited from earlier work
[3] = oral administration; cited from earlier work

Row | Compound | elongated life time (T/C=test/control) ([1]; 10 mg in 6.5 g of LIPIODOL) [%] | mean survival days (MST) ([1]; 10 mg in 6.5 g of LIPIODOL) [days] | elongated life time (T/C=test/control) ([1]; 100 mg in 6.5 g of LIPIODOL) [%] | mean survival days (MST) ([1]; 100 mg in 6.5 g of LIPIODOL) [days] | affinity to the estradiol-receptor (estradiol receptor) | decomposition/conversion within cells (cells) | stability in cells (cells) | death cases (acute toxicity) (Acute toxicity in rats; orally, maximum administrable amount 6,000 mg/kg) | LD50 (Acute toxicity in rats; rat, in vivo, ip, intraperitoneally, sesame oil solution) [mg/kg] | solubility in ester of iodinated poppy oil fatty acid (Solubility in oils; ester of iodinated poppy oil fatty acid) | solubility in ordinary oils (Solubility in oils; ordinary oils) | stability in vivo [2] | accumulation in cancer cells versus normal cells ([2]; in vivo) | adsorption rate in intestines [3]
1 | COc1cccc2c1C(=O)c1c(O)c3c(c(O)c1C2=O)C[C@@](O)(C(=O)CO)C[C@@H]3O[C@H]1C[C@H](N)[C@H](O)[C@H](C)O1 [Adriamycin] | 140.7 | 24.5 | < 5.7 | < 1 |  |  |  |  |  |  |  |  |  | 
2 | C[C@]12CC[C@@H]3c4ccc(O)cc4CC[C@H]3[C@@H]1CC[C@@H]2OC(=O)COC(=O)CCCc1ccc(N(CCCl)CCCl)cc1 [KM-2202, 3-hydroxy-1,3,5(10)-estratriene-17-[4-{p-(bis(2-chloroethyl)amino)phenyl}butanoyloxy]-acetate] |  |  |  |  | has an affinity to the estradiol receptor | decomposed slowly into estradiol and chlorambucil within cells | relatively unstable in cells |  |  |  |  |  |  | 
3 | C[C@]12CC[C@@H]3c4ccc(OC(=O)c5ccccc5)cc4CC[C@H]3[C@@H]1CC[C@@H]2OC(=O)COC(=O)CCCc1ccc(N(CCCl)CCCl)cc1 [present derivative, 3-benzoyloxy-1,3,5(10)-estratriene-17-[4-{p-(bis(2-chloroethyl)amino)phenyl}-butanoyloxy]acetate] |  |  | 234.3 | 41.0 | scarcely any function as an alkylating agent and any affinity to the estradiol-receptor | hydrolyzed by an enzyme |  | no death case | > 3000 | can be uniformly dissolved in the ester | does not completely dissolve in ordinary oils | relatively stable in vivo | accumulates in larger amount in cancer cells than in normal cells | low adsorption rate
